Assay results reported in US7439240B2, “Purine-or pyrrolol[2,3-d]pyrimidine-2-carbonitiles for treating diseases associated with cysteine protease activity” (AstraZeneca AB, priority 2002, dated 2008).

SMILES: CCn1ccc2c(Nc3ccc(Cl)cc3)nc(C#N)nc21 [Example 27, 4-[(4-Chlorophenyl)amino]-7-ethyl-7H-pyrrolo[2,3-d]pyrimidine-2-carbonitrile]
- melting point: 183 °C
